Source: US6680289B1, “Methods, compositions, and articles for odor control” (The Proctor & Gamble Company, priority 1999, dated 2004)

Tests used:
[1] = cited from earlier work
[2] = Interaction of perfume components with cyclodextrin (CD); format: physicochemical; settings: perfume component with cyclodextrin
Description: The following table illustrates the molecular weight property of some of the preferred perfume versus non-preferred perfume components.

Structure (SMILES) | solubility in water [1] | CD interaction [2]
ClC=CC[N+]12CN3CN(CN(C3)C1)C2.[Cl-] [Dowicil 200, 1-(3-Chlorallyl) -3,5,7-triaza-1-azoniaadamantane chloride] | freely soluble in water | –
CCC(C)(O)CCCC(C)C (centres unmarked) [Tetrahydrolinalol] | – | significant
